Data from patent publication US8480638B2, “Intraocular iontophoretic device and associated methods” (Aciont, Inc., priority 2007, dated 2013).

Key:
[1] = MRI distribution of Mn^++ in the rabbit eye after iontophoresis with a handheld ocular iontophoretic device; assay type: in vivo; settings: finger pressure, hydrogel 1.0M Mn^++, 2 mA for 20 minutes, return electrode on ear, 3 Tesla MRI, FIG. 7
From the text: A handheld ocular iontophoretic device is constructed from a plastic tube, wherein one end is shaped to conform to the eye of a rabbit. An electroplated AgAgCl electrode is positioned in one end of the plastic tube and a hydrogel is inserted into the tube so that one side of the hydrogel contacts the electrode, while the opposite side is configured to contact the eye. The hydrogel has been previously loaded with 1.0M Mn^++. The iontophoretic device is coupled to a power source and placed against the surface of an eye of a rabbit, partially within the cul-de-sac in a dorsal location. A return electrode is attached to the ear of the rabbit, and finger pressure is used to seal the device against the eye. 2 mA of current is applied to the iontophoretic device for 20 minutes to deliver the Mn^++ from the hydrogel and into the eye.

[2] = MRI distribution of Mn^++ in the rabbit eye after iontophoresis with an iontophoretic scleral lens device with suction; assay type: in vivo; settings: suction applied, hydrogel 1.0M Mn^++, 3 mA for 20 minutes, 3 Tesla MRI, FIG. 8
From the text: An iontophoretic scleral lens device is configured to conform to the eye of a rabbit. An electroplated AgAgCl electrode coupled to a 1.0M Mn^++ filled hydrogel is located within a reservoir structure along the contact surface of the scleral lens. The iontophoretic device is coupled to a power source and positioned on an eye of a rabbit, such that the reservoir is located partially within the cul-de-sac in a dorsal region of the eye. A return electrode is attached to the ear of the rabbit, and suction is applied to the scleral lens to preclude movement of the lens relative to the eye surface. 3 mA of current is applied to the scleral lens device for 20 minutes to deliver the Mn^++ from the hydrogel and into the eye. […] Diffusion from this region can be seen in the white band extending toward the posterior eye tissues.

- Distribution of the Mn^++ within the eye of the rabbit (MRI, white contrast) ([2]; return electrode on ear): delivered primarily into the eye tissues
SMILES: [Mn+2] [Mn^++]
- Distribution of the Mn^++ within the eye of the rabbit (MRI, white contrast) [1]: delivered primarily to the eyelid and surrounding tissues with relatively little delivery into the eye itself
- Depot formation in the eye (MRI, black region along the dorsal region of the eye) [2]: formation of a depot of concentrated Mn^++
